Laboratory results from patent US7402674B2, “7-Phenylamino-4-quinolone-3-carboxylic acid derivatives, process for their preparation and their use as medicaments” (Sanofi-Aventis Deutschland GmbH,, priority 2004, dated 2008).

Biological target: T1, human glycogen phosphorylase a (Homo sapiens, UniProt P06737)
T1 sequence (P06737 1-847): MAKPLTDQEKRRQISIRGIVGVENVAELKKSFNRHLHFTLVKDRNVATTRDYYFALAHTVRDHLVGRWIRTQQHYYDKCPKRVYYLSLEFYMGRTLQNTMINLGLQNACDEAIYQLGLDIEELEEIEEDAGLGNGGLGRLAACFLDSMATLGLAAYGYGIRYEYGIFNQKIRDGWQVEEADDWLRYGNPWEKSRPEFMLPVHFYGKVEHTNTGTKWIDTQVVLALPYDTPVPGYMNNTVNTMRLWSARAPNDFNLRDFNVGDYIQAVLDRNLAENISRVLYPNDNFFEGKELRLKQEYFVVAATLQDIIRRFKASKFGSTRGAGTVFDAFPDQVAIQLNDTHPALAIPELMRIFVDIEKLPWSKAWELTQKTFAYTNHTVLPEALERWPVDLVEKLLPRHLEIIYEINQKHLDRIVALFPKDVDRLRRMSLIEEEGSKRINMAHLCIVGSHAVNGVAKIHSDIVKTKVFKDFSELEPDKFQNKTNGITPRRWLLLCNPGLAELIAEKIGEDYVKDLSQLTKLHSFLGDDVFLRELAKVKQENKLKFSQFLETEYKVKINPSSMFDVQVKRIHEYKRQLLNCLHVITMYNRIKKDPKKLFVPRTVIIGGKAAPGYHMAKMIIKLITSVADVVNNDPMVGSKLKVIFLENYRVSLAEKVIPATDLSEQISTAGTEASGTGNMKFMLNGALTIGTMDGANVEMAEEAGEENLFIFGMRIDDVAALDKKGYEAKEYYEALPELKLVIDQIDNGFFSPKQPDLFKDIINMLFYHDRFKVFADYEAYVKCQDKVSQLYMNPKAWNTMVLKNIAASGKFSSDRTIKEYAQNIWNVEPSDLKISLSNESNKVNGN
Assay: Glycogen phosphorylase a activity assay
Assay type: biochemical
Conditions: 10 μM test substance; reverse direction (glycogen synthesis from glucose 1-phosphate, liberated inorganic phosphate)
Procedure: Glycogen Phosphorylase a Activity Assay
The effect of compounds on the activity of the active form of glycogen phosphorylase (GPa) was measured in the reverse direction by following the synthesis of glycogen from glucose 1-phosphate by determining the liberation of inorganic phosphate. All the reactions were carried out as duplicate determinations in microtiter plates with 96 wells (Half Area Plates, Costar No 3696), measuring the change in absorption owing to the formation of the reaction product at the wavelength specified hereinafter in a Multiskan Ascent Elisa Reader (Lab Systems, Finland).
In order to measure the GPa enzymic activity in the reverse direction, the general method of Engers et al. (Engers H D, Shechosky S, Madsen N B, Can J Biochem 1970 July; 48(7):746-754) was used to measure the conversion of glucose 1-phosphate into glycogen and inorganic phosphate, with the following modifications: human glycogen phosphorylase a (for example with 0.76 mg of protein/ml (Aventis Pharma Deutschland GmbH), dissolved in buffer solution E (25 mM β-glycerophosphate, pH 7.0, 1 mM EDTA and 1 mM dithiothreitol) was diluted with buffer T (50 mM Hepes, pH 7.0, 100 mM KCl, 2.5 mM EDTA, 2.5 mM MgCl2.6H2O) and addition of 5 mg/ml glycogen to a concentration of 10 μg of protein/ml. […] After incubation at 45° C. for 60 minutes, the absorption at 820 nm was measured. […]

1-Ethyl-6-(4-ethylphenylamino)-7-methyl-4-oxo-1,4-dihydro-[1,8]naphthyridine-3-carboxylate [Example 1]
% inhibition at 10 μM: 14%
